Results published in patent US20180042249A1, “METHOD FOR REDUCTION IN MICROBIAL ACTIVITY IN POULTRY PROCESSING” (Zeco, Inc., priority 2014, published 2018).

System: bacterial count on poultry carcasses (chicken samples)
Assay: Antimicrobial efficacy of elevated concentration and temperature application of PAA to poultry carcasses (average bacterial count reduction)
Assay type: cell-based
Experimental: As summarized in Table 1 below, ten chicken samples were treated with an elevated peroxyacetic acid concentration at an elevated temperature for a specified period of time using either an equilibrium peroxyacetic acid intervention solution or a pH modified peroxyacetic acid intervention solution. […] The treated poultry carcasses were measured for the average bacterial count reduction as a result of the elevated peroxyacetic acid concentration and elevated temperature.

peroxyacetic acid [PAA]
Average % Reduction (bacterial count) (PAA 500 ppm, 72 °F, 10 seconds exposure, pH 7.7 (pH modified PAA solution)): 97.34%
Average % Reduction (bacterial count) (PAA 500 ppm, 72 °F, 10 seconds exposure, pH ~3 (equilibrium PAA solution)): 70.57%
Average % Reduction (bacterial count) (PAA 500 ppm, 125 °F, 7 seconds exposure, pH 7.7 (pH modified PAA solution)): 93.68%
Average % Reduction (bacterial count) (PAA 500 ppm, 125 °F, 7 seconds exposure, pH ~3 (equilibrium PAA solution)): 77.26%
Average % Reduction (bacterial count) (PAA 600 ppm, 125 °F, 7 seconds exposure, pH 7.7 (pH modified PAA solution)): 89.34%
Average % Reduction (bacterial count) (PAA 600 ppm, 125 °F, 7 seconds exposure, pH ~3 (equilibrium PAA solution)): 61.94%
Average % Reduction (bacterial count) (PAA 700 ppm, 125 °F, 7 seconds exposure, pH 7.7 (pH modified PAA solution)): 97.87%
Average % Reduction (bacterial count) (PAA 700 ppm, 125 °F, 7 seconds exposure, pH ~3 (equilibrium PAA solution)): 92.27%
bacterial count reduction (elevated PAA concentration and temperature, period of time of at least 7 seconds (summary of Table 1)): ≥ 60%
